17 compounds from patent US20210284618A1, “FURANOCHALCONES AS INHIBITORS OF CYP1A1, CYP1A2 AND CYP1B1 FOR CANCER CHEMOPREVENTION” (Council of Scientific & Industrial Research, priority 2016, published 2021) can be followed below.

The target of one series is T1, CYP1B1 (Homo sapiens, UniProt Q16678).
T1 sequence (Q16678 1-543): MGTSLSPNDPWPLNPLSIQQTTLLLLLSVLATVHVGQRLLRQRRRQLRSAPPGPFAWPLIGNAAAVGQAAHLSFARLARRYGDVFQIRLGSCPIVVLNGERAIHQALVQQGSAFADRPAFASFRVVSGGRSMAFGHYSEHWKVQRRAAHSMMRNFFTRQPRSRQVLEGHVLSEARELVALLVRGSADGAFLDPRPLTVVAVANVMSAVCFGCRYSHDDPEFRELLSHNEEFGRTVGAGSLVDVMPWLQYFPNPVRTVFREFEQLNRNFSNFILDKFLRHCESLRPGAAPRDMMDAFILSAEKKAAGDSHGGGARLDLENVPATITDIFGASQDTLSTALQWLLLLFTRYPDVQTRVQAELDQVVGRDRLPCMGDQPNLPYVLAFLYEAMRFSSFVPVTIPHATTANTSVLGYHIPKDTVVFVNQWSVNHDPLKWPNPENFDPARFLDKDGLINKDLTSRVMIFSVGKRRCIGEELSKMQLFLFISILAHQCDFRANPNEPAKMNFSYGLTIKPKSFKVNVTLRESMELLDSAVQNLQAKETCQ
Description: In-vitro CYP450 1B1 enzyme inhibition in Saccharosomes. The class given is biochemical. Also on record: purchased CYP Design Ltd; host or cells: yeast microsomes (Saccharosomes). As to conditions: 10 μM test compound, 7-ethoxyresorufin; for inhibition at 10 μM: human, Saccharosomes (yeast-derived) with recombinant CYP1B1, probe 7-ethoxyresorufin (5 μl of 0.1 mM), % inhibition of CYP1B1 in Saccharosomes at 10 μM. As for the experimental part: Example 24. In-vitro CYP450 1B1 enzyme inhibition in Saccharosomes™: Regenerating system consists of: 5 μl Solution A (183 mg of NADP++183 mg of glucose-6-phosphate+654 μl of 1.0 M magnesium chloride solution+9.15 ml of sterile ultra-pure water)+1 μl Solution B (250 Units of glucose-6-phosphate dehydrogenase+6.25 ml of 5 mM sodium citrate; mixed in a tube and made up to 10 ml with sterile ultra-pure water)+39 μl 0.2 M Kpi (0.6 ml of 1.0M K2HPO4+9.4 ml of 1.0 M KH2PO4 were mixed and made up to 50 ml with sterile ultra-pure water)+5 μl potential inhibitory compound.
(§1) Example 25. IC50 determination for best compound against CYP1A1, CYP1B1 and other CYPs in Saccharosomes. Compounds were serially diluted to six different concentrations with 10% DMSO in a Sero-Well white microplate. The experiment was performed in a similar way as described above in examples 23 and 24.

Series [1] addresses T2, CYP1A1 (Homo sapiens, UniProt P04798).
T2 construct: host or cells: yeast microsomes (Saccharosomes)
T2 sequence (P04798 1-512): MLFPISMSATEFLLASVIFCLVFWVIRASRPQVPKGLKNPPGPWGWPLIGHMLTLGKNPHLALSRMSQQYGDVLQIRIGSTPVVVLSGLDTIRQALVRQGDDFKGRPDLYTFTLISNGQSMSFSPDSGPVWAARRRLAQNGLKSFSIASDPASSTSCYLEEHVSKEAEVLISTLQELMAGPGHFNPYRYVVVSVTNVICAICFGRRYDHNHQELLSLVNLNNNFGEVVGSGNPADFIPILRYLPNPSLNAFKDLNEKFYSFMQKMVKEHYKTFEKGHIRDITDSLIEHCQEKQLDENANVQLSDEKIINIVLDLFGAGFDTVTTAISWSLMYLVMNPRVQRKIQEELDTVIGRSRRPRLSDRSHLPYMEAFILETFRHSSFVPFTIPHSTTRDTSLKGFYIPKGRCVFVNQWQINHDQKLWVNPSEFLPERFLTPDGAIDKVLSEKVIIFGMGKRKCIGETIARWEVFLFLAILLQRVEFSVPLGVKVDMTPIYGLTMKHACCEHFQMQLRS
Description: CYP1A1 inhibition in HEK293 cells transfected with pcDNA3.1/CYP1A1 (live cells). The class given is cell-based. As to conditions: for inhibition at 10 μM: human, HEK293 cells transfected with pcDNA3.1/CYP1A1 (live cells), probe EROD (5 μM), % inhibition of CYP1A1 in HEK293 cells at 10 μM; for inhibition at 10 μM / % inhibition of CYP1A1 in HEK293 cells at 10 μM: 5 μM EROD. How it is done: Example 26. In-vitro CYP450 inhibition in HEK293 cells transfected with pcDNA3.1/CYP1A1 against 5 μM EROD. […] The HEK293 cells used here was procured from ‘European Collection of Authenticated Cell Cultures’ (catalog number. ECACC 85120602).

Series [2] deals with T2, CYP1A1. Description: In-vitro CYP450 1A1 enzyme inhibition in Saccharosomes. It counts as biochemical. As to conditions: for inhibition at 20 min, 10 μM: human, Saccharosomes containing CYP1A1, pH 7.4, probe ethoxyresorufin (5 μM), % inhibition of CYP1A1 in Saccharosomes at 10 μM; for inhibition at 20 min, 10 μM / % inhibition of CYP1A1 in Saccharosomes at 10 μM: 10 μM test compound, 5 μM ethoxyresorufin. How it is done: Example 23. In-vitro CYP450 1A1 enzyme inhibition in Saccharosomes™: The screening method utilizes 384-well microplates to rapidly ascertain relative percentage inhibition of CYP1A1 by a library of compounds. Each reaction was performed in black, clear-bottomed 384-well microplates. A reaction volume of 50 μl comprised of 0.5 pmol of the cytochrome P450 CYP1A1 (Saccharosomes), 5 μM of ethoxyresorufin substrate (which contributes 0.05% DMSO to the well), 10 μM of potential inhibitor test article (which contributes 0.5% DMSO to the well), A P450 reductase NADPH regenerating system (1.3 mM NADP+, 3.3 mM glucose-6-0.02 units phosphate and glucose-6-Phosphate dehydrogenase), potassium phosphate buffer (final well concentration 100 mM, pH 7.4) and water. Very small quantities of magnesium chloride and sodium citrate are added to the NADPH regenerating system, in line with standard published protocols. The potential inhibitor (test article) was pre-incubated with CYP1A1 of at least 20 minutes at 30° C. After this period, the remainder of the reagents required in the assay was added to initiate the process. The reaction mixture was incubated for another 20 minutes at 30° C. The reaction was stopped by adding an 80% acetonitrile, 20% 0.5 M Tris solution. The reactions were monitored using the Biotek Synergy HT plate reader by measuring the endpoint reaction at Excitation 530/(25 bandwidth) & Emission 590/(20 bandwidth) using a gain/sensitivity setting of 60. The mean of the quadruplicates of the negative control (solvent inactivated CYP1A1) was deducted from the mean of potential inhibitor (test article) samples. The percentage was then derived relative to the mean of the wells without inhibitor.
as §1

As a reminder, the IC50 is the concentration at which inhibition is half-maximal. The term inhibition denotes how much of the control response was suppressed. For the compound `O=c1cc(-c2ccccc2)oc2c1ccc1ccccc12` [Alpha-naphthoflavone, reference compound], the “% inhibition of CYP1B1 in Saccharosomes at 10 μM” value at CYP1B1 was determined as 98%. On CYP1A1 [1], this compound displayed an IC50 of more than 10000 nM and an inhibition at 10 μM of 30%. Besides, at CYP1A1 [2], the IC50 is 90 nM and the inhibition at 20 min, 10 μM is 97%.
`COc1c2occc2c(OC)c2c(=O)cc(C)oc12` [Compound 1, Khellin, reference compound]: at CYP1A1 [2], the “% inhibition of CYP1A1 in Saccharosomes at 10 μM” value stood at 88.3% and the inhibition at 20 min, 10 μM amounted to 88%.
As to `COc1c(C(C)=O)c(O)c(OC)c2occc12` [Compound 2, 1-(6-hydroxy-4,7-dimethoxybenzofuran-5-yl)ethanone], the inhibition at 10 μM at CYP1A1 [1] was more than 80%.
What is called melting point is the temperature of the solid-liquid transition. As to `COc1c(C(=O)/C=C/c2ccc(Br)cc2)c(O)c(OC)c2occc12` [Compound 3, 3-(4,7-dimethoxy-6-hydroxybenzofuran-5-yl)-1-(4-bromophenyl)-3-oxopropene], the melting point was 135 to 137 °C.
For the compound `COc1c(C(=O)/C=C/c2ccc(Cl)cc2)c(O)c(OC)c2occc12` [Compound 4, 3-(4,7-dimethoxy-6-hydroxybenzofuran-5-yl)-1-(4-chlorophenyl)-3-oxopropene], the melting point was in the range of 162 to 164 °C. In addition, at CYP1A1 [1], the “% inhibition of CYP1A1 in HEK293 cells at 10 μM” value is reported as 85.7% and the inhibition at 10 μM is more than 80%. The inhibition at 20 min, 10 μM on CYP1A1 [2] is 77.5%.
`COc1c(C(=O)/C=C/c2ccc(F)c(Br)c2)c(O)c(OC)c2occc12` [Compound 5, 3-(4,7-dimethoxy-6-hydroxybenzofuran-5-yl)-1-(3-bromo-4-fluorophenyl)-3-oxopropene] returned a melting point of 186 to 188 °C. For the same compound, on CYP1A1 [1], the “% inhibition of CYP1A1 in HEK293 cells at 10 μM” value was 82.3% and the inhibition at 10 μM is more than 80%. At CYP1A1 [2], the “% inhibition of CYP1A1 in Saccharosomes at 10 μM” value is on record as 83.1% and the inhibition at 20 min, 10 μM is more than 80%.
Compound `COc1c(C(=O)/C=C/c2ccc(F)cc2F)c(O)c(OC)c2occc12` [Compound 7, 3-(4,7-dimethoxy-6-hydroxybenzofuran-5-yl)-1-(2,4-difluorophenyl)-3-oxopropene] gave a melting point of 154 to 156 °C. Besides, the inhibition at 10 μM against CYP1A1 [1] was more than 80%.
As to `COc1cccc(/C=C/C(=O)c2c(O)c(OC)c3occc3c2OC)c1OC` [Compound 13, 3-(4,7-dimethoxy-6-hydroxybenzofuran-5-yl)-1-(2,3 dimethoxyphenyl)-3-oxopropene], the melting point fell in the range of 260 to 262 °C.
Regarding `COc1c(C(=O)/C=C/c2ccccc2)c(O)c(OC)c2occc12` [Compound 16, 3-(4,7-dimethoxy-6-hydroxybenzofuran-5-yl)-1-(phenyl)-3-oxopropene], the inhibition at 10 μM against CYP1A1 [1] is more than 80%. For the same compound, the inhibition at 20 min, 10 μM on CYP1A1 [2] was more than 80%.
For the compound `COc1ccc(/C=C/C(=O)c2c(O)c(OC)c3occc3c2OC)cc1Br` [Compound 17, 3-(4,7-dimethoxy-6-hydroxybenzofuran-5-yl)-1-(3-bromo-4-methoxyphenyl)-3-oxopropene], at CYP1A1 [1], the inhibition at 10 μM was determined as 74%. For the same compound, the inhibition at 20 min, 10 μM on CYP1A1 [2] was 37%.
As for `COc1cc(OC)c(OC)cc1/C=C/C(=O)c1c(O)c(OC)c2occc2c1OC` [Compound 18, 3-(4,7-dimethoxy-6-hydroxybenzofuran-5-yl)-1-(2,4,5-trimethoxyphenyl)-3-oxopropene], on CYP1A1 [1], the “% inhibition of CYP1A1 in HEK293 cells at 10 μM” value is reported as 96.8% and the inhibition at 10 μM was more than 80%. At CYP1A1 [2], the “% inhibition of CYP1A1 in Saccharosomes at 10 μM” value was found to be 92.2% and the inhibition at 20 min, 10 μM was more than 80%.
On to `COc1c(C(=O)/C=C/c2ccc3c(c2)OCO3)c(O)c(OC)c2occc12` [Compound 19, 3-(benzo[d][1,3]dioxol-5-yl)-1-(6-hydroxy-4,7-dimethoxybenzofuran-5-yl)prop-2-en-1-one], for which the inhibition at 10 μM on CYP1B1 came to 41.6%. Also, the inhibition at 20 min, 10 μM on CYP1A1 [2] is 48.4%.
As to `COc1c(C(=O)/C=C/c2ccsc2)c(O)c(OC)c2occc12` [Compound 20, 1-(6-hydroxy-4,7-dimethoxybenzofuran-5-yl)-3-(thiophen-3-yl)prop-2-en-1-one], on CYP1B1 (10 µM), the “% inhibition of CYP1B1 in Saccharosomes at 10 μM” value is recorded as 84.0%. The inhibition at 10 μM at CYP1B1 was more than 80%. On CYP1A1 [1], the inhibition at 10 μM was found to be 79.4%. In addition, at CYP1A1 [2], the “% inhibition of CYP1A1 in Saccharosomes at 10 μM” value turned out to be 95.1% and the inhibition at 20 min, 10 μM is more than 80%.
`COc1c(C(=O)/C=C/c2ccc(Cl)cc2Cl)c(O)c(OC)c2occc12` [Compound 21, 3-(2,4-dichlorophenyl)-1-(6-hydroxy-4,7-dimethoxybenzofuran-5-yl)prop-2-en-1-one]: at CYP1B1, the inhibition at 10 μM stood at 51.4%. On CYP1A1 [1], the inhibition at 10 μM was 71.4%. On CYP1A1 [2], the “% inhibition of CYP1A1 in Saccharosomes at 10 μM” value is recorded as 80.2% and the inhibition at 20 min, 10 μM was more than 80%.
Take `COc1c(C(=O)/C=C/c2ccc3ccccc3c2)c(O)c(OC)c2occc12` [Compound 22, 1-(6-hydroxy-4,7-dimethoxybenzofuran-5-yl)-3-(naphthalen-2-yl)prop-2-en-1-one]: the inhibition at 10 μM at CYP1B1 is 25.8%. The inhibition at 20 min, 10 μM on CYP1A1 [2] came to 49.7%.
The like results for `COc1c(C(=O)/C=C/c2ccccc2F)c(O)c(OC)c2occc12` [Compound 23, 3-(2-fluorophenyl)-1-(6-hydroxy-4,7-dimethoxybenzofuran-5-yl)prop-2-en-1-one] were, in that order, 34.2% and 41.1%.
The matching figures for `COc1c(C(=O)/C=C/c2ccc3cc4ccccc4cc3c2)c(O)c(OC)c2occc12` [Compound 24, 3-(anthracen-2-yl)-1-(6-hydroxy-4,7-dimethoxybenzofuran-5-yl)prop-2-en-1-one]: 19.2% and 43.4%.
